Reference: patent publication US6864233B2, “Fungicidal echinocandin derivatives and their preparation” (Aventis Pharma S.A., priority 2000, dated 2005)
*1 amine or outer side, *2 acyl side, *3 side chain or, on linkers, in order; H or OH if unused. Where a SMILES comes first, the peptide text is derived from it. Bridges are numbered along the chain shown (N, C = ends). [ ]: non-standard residue; d: D form. The star is where a group is joined. ξ: configuration not given here. X1 = CC(C)=CCCC(C)C1CCC2(C)C3=C(CCC12C)C1(C)CCC(OC(=O)*)C(C)(C)C1CC3; ξOrn(4,5-diOH) = O=C(C(CC(O)C(O)N[*:3])N[*:1])[*:2]; ξhTyr(βOH) = NC(C(=O)O)C(O)Cc1ccc(O)cc1; ξPro(3ξ-OH,4ξ-Me) = CC1CNC(C(=O)O)C1O; Hyp = O=C(O)[CH]1C[CH](O)CN1

Target: T1, Glucan Synthase of Candida Albicans (Candida albicans, UniProt O13428)
T1 construct: 22.5 μg of membrane proteins are incubated in a mixture of 2 mM of; endogenous in cells
T1 sequence (O13428 1-1897): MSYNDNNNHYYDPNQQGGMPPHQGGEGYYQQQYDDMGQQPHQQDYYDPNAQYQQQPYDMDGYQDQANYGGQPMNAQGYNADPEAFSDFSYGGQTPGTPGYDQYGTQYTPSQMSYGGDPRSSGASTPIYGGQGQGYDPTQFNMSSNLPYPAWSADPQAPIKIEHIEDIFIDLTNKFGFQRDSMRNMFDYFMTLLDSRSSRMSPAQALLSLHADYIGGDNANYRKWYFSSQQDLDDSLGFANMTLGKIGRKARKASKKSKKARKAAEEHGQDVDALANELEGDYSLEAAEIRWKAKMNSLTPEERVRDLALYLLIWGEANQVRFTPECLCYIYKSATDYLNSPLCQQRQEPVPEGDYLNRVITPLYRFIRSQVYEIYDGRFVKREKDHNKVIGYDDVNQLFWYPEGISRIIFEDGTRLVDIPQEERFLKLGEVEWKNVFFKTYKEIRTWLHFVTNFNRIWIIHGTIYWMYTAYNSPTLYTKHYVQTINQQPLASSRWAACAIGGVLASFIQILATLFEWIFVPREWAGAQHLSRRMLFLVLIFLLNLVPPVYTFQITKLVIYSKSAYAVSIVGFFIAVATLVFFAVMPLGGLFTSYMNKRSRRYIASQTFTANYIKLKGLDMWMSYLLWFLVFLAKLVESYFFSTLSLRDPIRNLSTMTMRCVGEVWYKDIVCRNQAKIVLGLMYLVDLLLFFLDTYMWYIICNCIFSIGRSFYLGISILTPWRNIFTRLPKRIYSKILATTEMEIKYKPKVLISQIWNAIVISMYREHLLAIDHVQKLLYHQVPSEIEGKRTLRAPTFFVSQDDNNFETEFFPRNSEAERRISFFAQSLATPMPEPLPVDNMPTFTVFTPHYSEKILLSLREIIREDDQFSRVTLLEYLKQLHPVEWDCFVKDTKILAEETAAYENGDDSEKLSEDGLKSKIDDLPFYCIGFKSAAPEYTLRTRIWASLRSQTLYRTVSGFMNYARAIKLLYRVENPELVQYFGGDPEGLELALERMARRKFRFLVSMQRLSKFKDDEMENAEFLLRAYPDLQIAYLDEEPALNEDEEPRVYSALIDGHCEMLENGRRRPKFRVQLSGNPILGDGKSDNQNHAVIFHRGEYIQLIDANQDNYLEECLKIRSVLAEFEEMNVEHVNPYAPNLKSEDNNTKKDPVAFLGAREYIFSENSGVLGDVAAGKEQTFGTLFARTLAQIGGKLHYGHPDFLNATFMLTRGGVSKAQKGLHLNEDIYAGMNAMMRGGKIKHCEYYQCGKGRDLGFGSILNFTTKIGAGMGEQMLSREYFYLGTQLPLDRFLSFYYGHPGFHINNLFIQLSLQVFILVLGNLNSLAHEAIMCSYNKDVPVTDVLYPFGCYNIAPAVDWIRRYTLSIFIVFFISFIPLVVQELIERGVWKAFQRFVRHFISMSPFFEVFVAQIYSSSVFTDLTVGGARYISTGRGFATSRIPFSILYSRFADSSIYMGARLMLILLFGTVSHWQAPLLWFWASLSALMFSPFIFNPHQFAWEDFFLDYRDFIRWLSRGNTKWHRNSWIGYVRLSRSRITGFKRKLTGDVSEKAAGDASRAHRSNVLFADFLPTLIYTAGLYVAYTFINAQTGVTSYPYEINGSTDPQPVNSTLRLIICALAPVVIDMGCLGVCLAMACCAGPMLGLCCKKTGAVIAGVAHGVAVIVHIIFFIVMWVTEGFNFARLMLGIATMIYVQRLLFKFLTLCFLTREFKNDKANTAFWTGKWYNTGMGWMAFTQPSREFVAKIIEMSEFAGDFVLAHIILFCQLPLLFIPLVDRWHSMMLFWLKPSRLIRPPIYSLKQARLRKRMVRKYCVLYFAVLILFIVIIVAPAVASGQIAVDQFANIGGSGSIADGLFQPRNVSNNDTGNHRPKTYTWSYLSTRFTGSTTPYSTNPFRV
T1 sequence (O42825 1-195 partner limits assumed): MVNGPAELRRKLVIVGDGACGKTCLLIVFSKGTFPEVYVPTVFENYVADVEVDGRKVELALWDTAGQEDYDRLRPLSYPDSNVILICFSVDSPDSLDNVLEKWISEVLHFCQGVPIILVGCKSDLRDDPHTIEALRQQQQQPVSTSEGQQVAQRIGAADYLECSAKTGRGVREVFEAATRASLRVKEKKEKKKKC
Assay: Inhibition of the glucan synthase of Candida albicans (14C-UDP glucose incorporation, membrane preparation)
Assay type: biochemical
Conditions: Candida albicans membranes, 25° C., 1 hour; result in words
Method: A—Inhibition of the Glucan Synthase of Candida Albicans.
Candida albicans membranes are purified according to the process described by Tang et al Antimicrob. Agents Chemother 35, 99-103, 1991. 22.5 μg of membrane proteins are incubated in a mixture of 2 mM of ^14C-UDP glucose (specific activity=0.34 mCi./mmol, 50 μg of a α-amylase, 1 mM of dithiotreitol (DTT), 1 mM EDTA, 100 mM NaF, 7 μM of GTP-γ-S, 1M of sucrose and 50 mM of Tris-HCL (pH 7.8) in a volume of 100 μl. The medium is incubated at 25° C. for 1 hour and the reaction is terminated by adding TCA at a final concentration of 5%. The reaction mixture is transferred onto a pre-moistened glass fibre filter. The filter is washed, dried and its radioactivity is counted. Mulundocandin is used as a positive control. Control of the vehicle is carried out with the same quantity of 1% DMSO.

Compound | Inhibition of the Glucan Synthase of Candida Albicans
1-[(4R,5R)-4,5-dihydroxy-N2-[[[(3β, 22E)-ergosta-5,7,22-trien-3-yl]oxy]carbonyl]-L-ornithine]-mulundocandin [Example 3] | good activity
CC(C)=CCCC(C)C1CCC2(C)C3=C(CCC12C)C1(C)CCC(OC(=O)NC2CC(O)C(O)NC(=O)C(CO)NC(=O)C4C(O)C(C)CN4C(=O)C(C(O)Cc4ccc(O)cc4)NC(=O)C4CC(O)CN4C(=O)C(C(C)O)NC2=O)C(C)(C)C1CC3 [Example 2, 1-[(4R,5R)-4,5-dihydroxy-N2-[[[(3β)-lanosta-8,24-dien-3-yl]oxy]carbonyl]-L-ornithine]-deoxymulundocandin] (X1-[ξOrn(4,5-diOH)]T[Hyp][ξhTyr(βOH)][ξPro(3ξ-OH,4ξ-Me)]S; lactam 1-C; configuration not given here) | good activity
